Experimental findings from ChEMBL document CHEMBL2074443, “Association of tamoxifen biliary excretion rate with prior tamoxifen exposure and increased mdr1b expression” (Biochem Pharmacol, 2000) are described below.

This series addresses ATP-dependent translocase ABCB1 (Rattus norvegicus, UniProt P43245). Nature of the series: TP_TRANSPORTER: RT-PCR in vivo, liver of Lewis rat. In kind it is functional, organism-based.

Sequence of ATP-dependent translocase ABCB1 (P43245 whole entry): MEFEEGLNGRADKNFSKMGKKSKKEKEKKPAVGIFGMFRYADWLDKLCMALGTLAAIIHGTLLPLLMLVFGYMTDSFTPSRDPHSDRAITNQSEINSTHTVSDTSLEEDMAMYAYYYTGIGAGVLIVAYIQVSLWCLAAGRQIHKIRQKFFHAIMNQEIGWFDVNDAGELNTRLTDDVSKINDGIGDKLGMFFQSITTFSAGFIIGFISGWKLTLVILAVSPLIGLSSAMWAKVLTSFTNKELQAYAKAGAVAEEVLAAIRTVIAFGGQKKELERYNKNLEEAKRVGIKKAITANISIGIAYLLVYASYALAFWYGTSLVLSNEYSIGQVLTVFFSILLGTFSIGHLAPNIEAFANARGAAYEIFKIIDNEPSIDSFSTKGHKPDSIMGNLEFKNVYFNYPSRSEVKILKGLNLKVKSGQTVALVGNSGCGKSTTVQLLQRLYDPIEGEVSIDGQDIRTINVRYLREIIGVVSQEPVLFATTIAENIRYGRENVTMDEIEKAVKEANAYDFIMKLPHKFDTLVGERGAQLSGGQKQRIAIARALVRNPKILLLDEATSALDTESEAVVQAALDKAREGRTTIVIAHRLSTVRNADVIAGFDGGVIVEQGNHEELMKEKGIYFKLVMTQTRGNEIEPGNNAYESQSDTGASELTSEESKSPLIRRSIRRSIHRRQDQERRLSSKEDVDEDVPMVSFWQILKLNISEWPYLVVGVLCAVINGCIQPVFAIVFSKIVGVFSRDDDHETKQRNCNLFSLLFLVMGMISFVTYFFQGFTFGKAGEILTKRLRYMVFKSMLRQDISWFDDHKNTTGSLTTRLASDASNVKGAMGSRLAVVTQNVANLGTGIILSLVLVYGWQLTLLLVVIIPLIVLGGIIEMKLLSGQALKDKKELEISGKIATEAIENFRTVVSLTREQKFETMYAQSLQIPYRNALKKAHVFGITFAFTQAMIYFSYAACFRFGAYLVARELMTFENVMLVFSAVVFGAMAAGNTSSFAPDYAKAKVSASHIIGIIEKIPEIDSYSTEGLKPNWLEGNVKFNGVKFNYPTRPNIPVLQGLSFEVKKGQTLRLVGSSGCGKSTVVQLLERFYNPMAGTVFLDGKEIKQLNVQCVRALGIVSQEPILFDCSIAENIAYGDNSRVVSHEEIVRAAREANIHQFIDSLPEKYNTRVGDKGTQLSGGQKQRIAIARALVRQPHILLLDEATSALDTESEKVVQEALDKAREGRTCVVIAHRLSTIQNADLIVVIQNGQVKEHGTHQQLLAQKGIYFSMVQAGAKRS

For `CC/C(=C(\c1ccccc1)c1ccc(OCCN(C)C)cc1)c1ccccc1` [TAMOXIFEN], the Activity entry was “inducer [+]”.
